From patent US8399462B2, “JNK modulators” (Roche Palo Alto LLC, priority 2006, dated 2013) come the findings set out here.

Where “and” joins values, the source holds several entries; their conditions need not be identical. Identical values can stand only once.

`CS(=O)(=O)CCCOc1cccc2c1cnn2-c1ccnc(N[C@H]2CC[C@H](C(=O)c3ccccn3)CC2)n1` [Compound 256, (4-{4-[4-(3-methane-sulfonyl-propoxy)-indazol-1-yl]-pyrimidin-2-ylamino}-cyclohexyl)-pyrid-2-yl-methanone] returned a melting point of 200 to 201 °C.
The compound `C[C@@H](CO)COc1cccc2c1cnn2-c1ccnc(N[C@H]2CC[C@H](C(=O)N3CCCC3)CC2)n1` (stereo in doubt) [Compound 171, (4-{4-[4-(3-hydroxy-2-methylpropoxy)-indazol-1-yl]-pyrimidin-2-ylamino}-cyclohexyl)-pyrrolidin-1-ylmethanone] displayed a melting point of 199.4 to 200.4 °C.
As to `O=C([C@H]1CC[C@H](Nc2nccc(-n3ccc4c(C5(O)CCOCC5)cccc43)n2)CC1)N1CCC(O)CC1` [Compound 232, (4-hydroxy-piperidin-1-yl)-(4-{4-[4-(4-hydroxy-tetrahydro-pyran-4-yl)-indol-1-yl]-pyrimidin-2-ylamino}-cyclohexyl)-methanone], the melting point fell in the range of 168 to 169 °C.
As to `C[C@@H](CO)COc1cccc2c1cnn2-c1ccnc(N[C@H]2CC[C@H](N(C)S(C)(=O)=O)CC2)n1` (stereo in doubt) [Compound 186, N-(4-{4-[4-(3-hydroxy-2-methylpropoxy)-indazol-1-yl]-pyrimidin-2-ylamino}-cyclohexyl)-N-methyl-methanesulfonamide], the melting point lay in the range of 222 to 224 °C.
As for `CS(=O)(=O)CCCOc1cccc2c1ccn2-c1ccnc(N[C@H]2CC[C@H](CO)CC2)n1` [Compound 214, (4-{4-[4-(3-methanesulfonyl-propoxy)-indol-1-yl]-pyrimidin-2-ylamino}-cyclohexyl)-methanol], the melting point was 207 to 208 °C.
For `CCc1cccc2c1cnn2-c1ccnc(N[C@H]2CC[C@H](O)CC2)n1` [Compound 99, 4-[4-(4-ethylindazol-1-yl)-pyrimidin-2-yl-amino]-cyclohexanol] the value was 170.2 to 174.4 °C.
Compound `CC(C)Oc1cccc2c1cnn2-c1ccnc(N[C@H]2CC[C@H](N(C)S(C)(=O)=O)CC2)n1` [Compound 189, N-{4-[4-(4-isopropoxy-indazol-1-yl)-pyrimidin-2-ylamino]-cyclohexyl}-N-methyl-methanesulfonamide] displayed a melting point of 222 to 223 °C.
For the compound `CC(C)(O)[C@H]1CC[C@H](Nc2nccc(-n3ncc4c(OCCCO)cccc43)n2)CC1` [Compound 183, 3-(1-{2-[4-(2-hydroxy-prop-2-yl)-cyclohexyl-amino]-pyrimidin-4-yl}-1H-indazol-4-yloxy)-propan-1-ol], the melting point was in the range of 229.5 to 231 °C.
`CS(=O)(=O)CCCOc1cccc2c1cnn2-c1ccnc(N[C@H]2CC[C@H](C(=O)c3ccccc3)CC2)n1` [Compound 255, (4-{4-[4-(3-methane-sulfonyl-propoxy)-indazol-1-yl]-pyrimidin-2-ylamino}-cyclohexyl)-phenyl-methanone] displayed a melting point of 174.5 to 175.5 °C.
Regarding `CN([C@H]1CC[C@H](Nc2nccc(-n3cc(C#N)c4ccccc43)n2)CC1)S(C)(=O)=O` [Compound 248, N-{4-[4-(3-cyano-indol-1-yl)-pyrimidin-2-ylamino]-cyclohexyl}-N-methyl-methane-sulfonamide], the melting point was in the range of 289 to 290 °C.
For `CN([C@H]1CC[C@H](Nc2nccc(-n3ccc4c(CNS(C)(=O)=O)cccc43)n2)CC1)S(C)(=O)=O` [Compound 188, N-(4-{4-[4-(methane-sulfonylamino-methyl)-indol-1-yl]-pyrimidin-2-ylamino}-cyclohexyl)-N-methyl-methane-sulfonamide], the melting point lay within 226.5 to 228 °C.
`CS(=O)(=O)CCCOc1cccc2c1cnn2-c1ccnc(N[C@H]2CC[C@H](NS(C)(=O)=O)CC2)n1` [Compound 156, N-(4-{4-[4-(3-methane-sulfonyl-propoxy)-indazol-1-yl]-pyrimidin-2-ylamino}-cyclohexyl)-methanesulfonamide] gave a melting point of 247 to 248 °C.
For `CS(=O)(=O)N[C@H]1CC[C@H](Nc2nccc(-n3ncc4c(OCCO)cccc43)n2)CC1` [Compound 141, N-(4-{4-[4-(2-hydroxy-ethoxy)-indazol-1-yl]-pyrimidin-2-ylamino}-cyclohexyl)-methane-sulfonamide] the value was 268.1 to 269.1 °C; for `C[C@H]1CCCN1C(=O)[C@H]1CC[C@H](Nc2nccc(-n3ncc4c(OCCCS(N)(=O)=O)cccc43)n2)CC1` (stereo in doubt) [Compound 273, 3-(1-{2-[4-(2-methyl-pyrrolidine-1-carbonyl)-cyclohexylamino]-pyrimidin-4-yl}-1H-indazol-4-yloxy)-propane-1-sulfonic acid amide], 230 to 231 °C; for `CN([C@H]1CC[C@H](Nc2nccc(-n3ccc4c(C(C)(C)C#N)cccc43)n2)CC1)S(C)(=O)=O` [Compound 173, N-(4-{4-[4-(2-cyano-prop-2-yl)-indol-1-yl]-pyrimidin-2-ylamino}-cyclohexyl)-N-methyl-methanesulfonamide], 189 to 190 °C.
The compound `CC(C)(O)c1cccc2c1ccn2-c1ccnc(N[C@H]2CC[C@H](N3CCCS3(=O)=O)CC2)n1` [Compound 179, 2-(1-{2-[4-(1,1-dioxo-isothiazolidin-2yl)-cyclohexylamino}-pyrimidin-4-yl}-1H-indol-4-yl)-propan-2-ol] came in with a melting point of 206.9 to 207.6 °C.
On to `COc1cccc2c1cnn2-c1ccnc(N[C@H]2CC[C@H](NS(C)(=O)=O)CC2)n1` [Compound 126, N-{4-[4-(4-methoxy-indazol-1-yl)-pyrimidin-2-ylamino]-cyclohexyl}-methanesulfonamide], for which the melting point lay in the range of 291.5 to 292.5 °C.
`O=c1[nH]n(-c2ccnc(N[C@H]3CC[C@H](O)CC3)n2)c2ccccc12` [Example 16, trans-1-[2-(4-hydroxycyclohexylamino)-pyrimidin-4-yl]-1,2-dihydroindazol-3-one] returned a melting point of 263.5 to 264.4 °C.
`CC(C)(CO)COc1cccc2c1cnn2-c1ccnc(N[C@H]2CC[C@H](C(=O)N3CC[C@@H](O)C3)CC2)n1` (stereo in doubt) [Compound 261, (4-{4-[4-(3-hydroxy-2,2-dimethyl-propoxy)-indazol-1-yl]-pyrimidin-2-ylamino}-cyclohexyl)-(3-hydroxy-pyrrolidin-1-yl)-methanone]: the melting point is 214 to 215 °C.
Regarding `N#Cc1cn(-c2ccnc(N[C@H]3CC[C@H](C(=O)N4CCC(O)CC4)CC3)n2)c2ccccc12` [Compound 249, 1-{2-[4-(4-hydroxy-piperidine-1-carbonyl)-cyclohexylamino]-pyrimidin-4-yl}-1H-indol-3-carbonitrile], the melting point is 259 to 260 °C.
In turn, `CS(=O)(=O)CCCOc1cccc2c1ccn2-c1ccnc(N[C@H]2CC[C@H](C(=O)N3CCCC(C#N)C3)CC2)n1` (stereo partly shown) [Compound 264, 1-(4-{4-[4-(3-methane-sulfonyl-propoxy)-indol-1-yl]-pyrimidin-2-ylamino}-cyclohexane-carbonyl)-piperidine-3-carbonitrile] came in with a melting point of 132 to 133 °C.
On to `CC(=O)Nc1ccc2cnn(-c3ccnc(N[C@H]4CC[C@H](O)CC4)n3)c2c1` [Example 19, trans-N-{1-[2-(4-Hydroxycyclohexylamino)-pyrimidin-4-yl]-1H-indazol-6-yl}-acetamide], for which the melting point lay in the range of 288 to 289.5 °C.
As for `CN(C)C1CCN(C(=O)[C@H]2CC[C@H](Nc3nccc(-n4ccc5c(OCCCS(C)(=O)=O)cccc54)n3)CC2)CC1` [Compound 275, (4-dimethylamino-piperidin-1-yl)-(4-{4-[4-(3-methanesulfonyl-propoxy)-indol-1-yl]-pyrimidin-2-ylamino}-cyclohexyl)-methanone], the melting point was 182.4 to 183 °C and 178.9 to 180.6 °C.
On to `CN(C)S(=O)(=O)N[C@H]1CC[C@H](Nc2nccc(-n3ncc4ccccc43)n2)CC1` [Compound 136, Dimethyl sulfonamide [4-(4-indazol-1-yl)-pyrimidin-2-ylamino]-cyclohexyl amine], for which the melting point was in the range of 238.5 to 239.7 °C.
In turn, `CS(=O)(=O)CCCOc1cccc2c1ccn2-c1ccnc(N[C@H]2CC[C@H](C(=O)N3CCC(=O)CC3)CC2)n1` registered a melting point of 155 to 158.2 °C.
For `CN(C)C(=O)[C@H]1CC[C@H](Nc2nccc(-n3ncc4c(OCc5ccccn5)cccc43)n2)CC1` [Compound 150, 4-{4-[4-(pyridine-2-yl-methoxy)-indazol-1-yl]-pyrimidin-2-ylamino}-cyclohexanecarboxylic acid dimethylamide], the melting point lay in the range of 217.3 to 219 °C.
Consider `CN(C)S(=O)(=O)CCCOc1cccc2c1cnn2-c1ccnc(N[C@H]2CC[C@H](C(=O)N3CCC(O)CC3)CC2)n1` [Compound 229, 3-(1-{2-[4-(4-hydroxy-piperidin-1-carbonyl)-cyclohexylamino]-pyrimidin-4-yl}-1H-indazol-4-yloxy)-propane-1-sulfonic acid dimethylamide], for which the melting point lay within 190 to 191 °C.
The compound `CC(=O)N[C@H]1CC[C@H](Nc2nccc(-n3ccc4c(COCCS(C)(=O)=O)cccc43)n2)CC1` [Compound 139, N-(4-{4-[4-(2-methane-sulfonyl-ethoxymethyl)-indol-1-yl]-pyrimidin-2-ylamino}-cyclohexyl)-acetamide] displayed a melting point of 208.5 to 209.7 °C.
As for `CN([C@H]1CC[C@H](Nc2nccc(-n3ncc4c(OCCCS(C)(=O)=O)cccc43)n2)CC1)S(C)(=O)=O` [Compound 158, N-(4-{4-[4-(3-methane-sulfonyl-propoxy)-indazol-1-yl]-pyrimidin-2-ylamino}-cyclohexyl)-N-methyl-methane-sulfonamide], the melting point was 208.8 to 209.6 °C.
`O[C@H]1CC[C@H](Nc2nccc(-c3noc4ccc(F)cc34)n2)CC1` [Compound 83, 4-[4-(5-fluorobenzo[d]-isoxazol-3-yl)-pyrimidin-2-ylamino]-cyclohexanol] yielded a melting point of 172 to 173.9 °C.
Consider `NS(=O)(=O)CCCOc1cccc2c1ccn2-c1ccnc(N[C@H]2CC[C@H](C(=O)N3CCC3)CC2)n1` [Compound 299, 3-(1-{2-[4-(azetidin-1-carbonyl)-cyclohexyl-amino]-pyrimidin-4-yl}-1H-indol-4-yloxy)-propane-1-sulfonic acid amide], for which the melting point lay in the range of 218.4 to 220.9 °C.
